Assay results taken from ChEMBL document CHEMBL6182889, “Discovery of the first-in-class DOT1L PROTAC degrader” (Eur J Med Chem, 2025).
Active and inactive are the calls of the source. No cut-off for these calls is given here.

Tests used:
[1] = biological target: T1, von Hippel-Lindau disease tumor suppressor/Histone-lysine N-methyltransferase, H3 lysine-79 specific (Homo sapiens, UniProt Q8TEK3+P40337); experiment: PROTAC activity at VHL/DOTIL in mixed-lineage leukemia rearranged (MLL-r) human THP-1 cells assessed as induction of DOT1L degradation by measuring fold change in DOTIL protein level at 0.3 uM incubated for 24 hrs by western blot analysis relative to control; format: cell-based
Target sequence in this assay (P40337 whole entry, looked up): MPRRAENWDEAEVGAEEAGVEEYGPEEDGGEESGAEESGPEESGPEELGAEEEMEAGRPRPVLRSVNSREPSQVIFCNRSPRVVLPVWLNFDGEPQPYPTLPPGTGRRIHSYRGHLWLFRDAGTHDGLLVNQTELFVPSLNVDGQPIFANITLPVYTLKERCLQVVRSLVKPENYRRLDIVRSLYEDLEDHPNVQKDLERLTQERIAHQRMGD
Target sequence in this assay (Q8TEK3 whole entry, looked up): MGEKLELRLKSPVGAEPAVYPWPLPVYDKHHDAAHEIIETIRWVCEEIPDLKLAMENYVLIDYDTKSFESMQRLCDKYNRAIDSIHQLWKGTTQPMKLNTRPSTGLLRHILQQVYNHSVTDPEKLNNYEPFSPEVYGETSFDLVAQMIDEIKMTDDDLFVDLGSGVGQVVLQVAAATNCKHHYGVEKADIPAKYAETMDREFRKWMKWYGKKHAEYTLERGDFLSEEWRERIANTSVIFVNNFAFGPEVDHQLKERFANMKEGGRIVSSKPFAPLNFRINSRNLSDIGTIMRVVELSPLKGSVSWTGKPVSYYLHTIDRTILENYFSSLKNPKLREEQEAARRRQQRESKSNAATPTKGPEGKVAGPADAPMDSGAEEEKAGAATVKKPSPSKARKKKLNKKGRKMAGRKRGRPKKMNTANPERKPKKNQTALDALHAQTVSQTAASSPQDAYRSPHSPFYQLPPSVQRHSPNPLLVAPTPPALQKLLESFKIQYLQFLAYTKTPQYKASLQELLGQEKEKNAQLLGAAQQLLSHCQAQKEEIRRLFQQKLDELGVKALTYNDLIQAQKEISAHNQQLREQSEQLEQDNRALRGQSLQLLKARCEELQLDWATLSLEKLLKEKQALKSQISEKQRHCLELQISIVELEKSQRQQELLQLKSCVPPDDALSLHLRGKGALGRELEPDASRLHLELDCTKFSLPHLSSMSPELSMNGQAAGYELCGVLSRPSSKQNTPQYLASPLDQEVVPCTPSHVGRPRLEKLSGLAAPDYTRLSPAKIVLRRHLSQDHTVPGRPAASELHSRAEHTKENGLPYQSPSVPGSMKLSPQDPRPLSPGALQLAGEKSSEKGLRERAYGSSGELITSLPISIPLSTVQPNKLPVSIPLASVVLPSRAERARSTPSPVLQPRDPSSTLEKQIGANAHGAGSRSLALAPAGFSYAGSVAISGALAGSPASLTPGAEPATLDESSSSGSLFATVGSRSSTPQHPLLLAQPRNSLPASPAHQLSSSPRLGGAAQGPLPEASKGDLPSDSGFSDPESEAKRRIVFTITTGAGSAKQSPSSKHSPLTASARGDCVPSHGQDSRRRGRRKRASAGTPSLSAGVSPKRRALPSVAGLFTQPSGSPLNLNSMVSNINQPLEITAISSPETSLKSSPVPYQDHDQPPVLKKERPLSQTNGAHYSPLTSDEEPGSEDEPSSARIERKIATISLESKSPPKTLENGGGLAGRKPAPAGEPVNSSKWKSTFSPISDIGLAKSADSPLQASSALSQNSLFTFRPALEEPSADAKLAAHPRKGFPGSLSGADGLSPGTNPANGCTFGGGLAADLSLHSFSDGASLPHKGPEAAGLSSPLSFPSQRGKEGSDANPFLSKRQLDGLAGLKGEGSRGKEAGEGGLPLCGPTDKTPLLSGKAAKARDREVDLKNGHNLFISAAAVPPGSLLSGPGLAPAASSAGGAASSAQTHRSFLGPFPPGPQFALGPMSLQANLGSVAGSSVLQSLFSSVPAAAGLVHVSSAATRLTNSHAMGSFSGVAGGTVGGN

[2] = biological target: T1, von Hippel-Lindau disease tumor suppressor/Histone-lysine N-methyltransferase, H3 lysine-79 specific; experiment: PROTAC activity at VHL/DOTIL in mixed-lineage leukemia rearranged (MLL-r) human THP-1 cells assessed as induction of DOT1L degradation by measuring reduction in DOTIL protein level at 0.3 uM incubated for 24 hrs by western blot analysis relative to control; format: cell-based; set-up: scale not given: the % may be the effect or the level left
Target sequence in this assay (P40337 whole entry, looked up): as the sequence (P40337 whole entry, looked up) above
Target sequence in this assay (Q8TEK3 whole entry, looked up): as the sequence (Q8TEK3 whole entry, looked up) above

[3] = biological target: T1, von Hippel-Lindau disease tumor suppressor/Histone-lysine N-methyltransferase, H3 lysine-79 specific; experiment: PROTAC activity at VHL/DOTIL in mixed-lineage leukemia rearranged (MLL-r) human THP-1 cells assessed as induction of DOT1L degradation by measuring reduction in DOTIL protein level at 3 uM incubated for 24 hrs by western blot analysis relative to control; format: cell-based; set-up: scale not given: the % may be the effect or the level left
Target sequence in this assay (P40337 whole entry, looked up): as the sequence (P40337 whole entry, looked up) above
Target sequence in this assay (Q8TEK3 whole entry, looked up): as the sequence (Q8TEK3 whole entry, looked up) above

[4] = biological target: T1, von Hippel-Lindau disease tumor suppressor/Histone-lysine N-methyltransferase, H3 lysine-79 specific; experiment: PROTAC activity at VHL/DOT1L in mixed-lineage leukemia rearranged (MLL-r) human THP-1 cells assessed as maximal induction of DOT1L degradation incubated for 24 hrs by western blot analysis relative to control; format: cell-based
Target sequence in this assay (P40337 whole entry, looked up): as the sequence (P40337 whole entry, looked up) above
Target sequence in this assay (Q8TEK3 whole entry, looked up): as the sequence (Q8TEK3 whole entry, looked up) above

[5] = biological target: T1, von Hippel-Lindau disease tumor suppressor/Histone-lysine N-methyltransferase, H3 lysine-79 specific; experiment: PROTAC activity at VHL/DOT1L in mixed-lineage leukemia rearranged (MLL-r) human MV4-11 cells assessed as induction of DOT1L degradation incubated for 24 hrs by western blot analysis; format: cell-based
[6] = biological target: T1, von Hippel-Lindau disease tumor suppressor/Histone-lysine N-methyltransferase, H3 lysine-79 specific; experiment: PROTAC activity at VHL/DOT1L in mixed-lineage leukemia rearranged (MLL-r) human MV4-11 cells assessed as maximal induction of DOT1L degradation incubated for 24 hrs by western blot analysis relative to control; format: cell-based
Target sequence in this assay (P40337 whole entry, looked up): as the sequence (P40337 whole entry, looked up) above
Target sequence in this assay (Q8TEK3 whole entry, looked up): as the sequence (Q8TEK3 whole entry, looked up) above

[7] = biological target: T1, von Hippel-Lindau disease tumor suppressor/Histone-lysine N-methyltransferase, H3 lysine-79 specific; experiment: PROTAC activity at VHL/DOT1L in mixed-lineage leukemia rearranged (MLL-r) human THP-1 cells assessed as induction of DOTIL degradation by measuring fold change in DOT1L protein level at 3 uM incubated for 1 hr by western blot analysis relative to control; format: cell-based
Target sequence in this assay (P40337 whole entry, looked up): as the sequence (P40337 whole entry, looked up) above
Target sequence in this assay (Q8TEK3 whole entry, looked up): as the sequence (Q8TEK3 whole entry, looked up) above

[8] = biological target: T1, von Hippel-Lindau disease tumor suppressor/Histone-lysine N-methyltransferase, H3 lysine-79 specific; experiment: PROTAC activity at VHL/DOT1L in mixed-lineage leukemia rearranged (MLL-r) human THP-1 cells assessed as induction of DOTIL degradation by measuring fold change in DOT1L protein level at 3 uM incubated for 2 hrs by western blot analysis relative to control; format: cell-based
[9] = biological target: T1, von Hippel-Lindau disease tumor suppressor/Histone-lysine N-methyltransferase, H3 lysine-79 specific; experiment: PROTAC activity at VHL/DOT1L in mixed-lineage leukemia rearranged (MLL-r) human MV4-11 cells assessed as induction of DOTIL degradation by measuring fold change in DOT1L protein level at 3 uM incubated for 2 hrs by western blot analysis relative to control; format: cell-based
[10] = biological target: T1, von Hippel-Lindau disease tumor suppressor/Histone-lysine N-methyltransferase, H3 lysine-79 specific; experiment: PROTAC activity at VHL/DOT1L in mixed-lineage leukemia rearranged (MLL-r) human MV4-11 cells assessed as induction of DOTIL degradation by measuring fold change in DOT1L protein level at 3 uM incubated for 8 hrs by western blot analysis relative to control; format: cell-based
[11] = biological target: T1, von Hippel-Lindau disease tumor suppressor/Histone-lysine N-methyltransferase, H3 lysine-79 specific; experiment: PROTAC activity at VHL/DOT1L in mixed-lineage leukemia rearranged (MLL-r) human MV4-11 cells assessed as induction of DOTIL degradation by measuring fold change in H3K79Me2 level at 3 uM incubated for 8 hrs by western blot analysis relative to control; format: cell-based
[12] = biological target: T1, von Hippel-Lindau disease tumor suppressor/Histone-lysine N-methyltransferase, H3 lysine-79 specific; experiment: PROTAC activity at VHL/DOT1L in mixed-lineage leukemia rearranged (MLL-r) human MV4-11 cells assessed as induction of DOTIL degradation by measuring fold change in H3K79Me2 level at 3 uM incubated for 48 hrs by western blot analysis relative to control; format: cell-based
MV4-11 = experiment: Effect on DOTIL mRNA expression in mixed-lineage leukemia rearranged (MLL-r) human MV4-11 cells at 3 uM incubated for 24 hrs by RT-qPCR analysis; format: functional, cell-based
[13] = biological target: DNA (cytosine-5)-methyltransferase 3A (Homo sapiens) (UniProt Q9Y6K1); experiment: Inhibition of human DNMT3a using lambda DNA and SAM as substrate at 10 uM by radiometric Hotspot assay
[14] = biological target: T2, Histone-lysine N-methyltransferase EHMT2 (Homo sapiens) (UniProt Q96KQ7); experiment: Inhibition of human G9a using Histone H3 and SAM as substrate at 10 uM by radiometric Hotspot assay
T2 sequence (whole entry): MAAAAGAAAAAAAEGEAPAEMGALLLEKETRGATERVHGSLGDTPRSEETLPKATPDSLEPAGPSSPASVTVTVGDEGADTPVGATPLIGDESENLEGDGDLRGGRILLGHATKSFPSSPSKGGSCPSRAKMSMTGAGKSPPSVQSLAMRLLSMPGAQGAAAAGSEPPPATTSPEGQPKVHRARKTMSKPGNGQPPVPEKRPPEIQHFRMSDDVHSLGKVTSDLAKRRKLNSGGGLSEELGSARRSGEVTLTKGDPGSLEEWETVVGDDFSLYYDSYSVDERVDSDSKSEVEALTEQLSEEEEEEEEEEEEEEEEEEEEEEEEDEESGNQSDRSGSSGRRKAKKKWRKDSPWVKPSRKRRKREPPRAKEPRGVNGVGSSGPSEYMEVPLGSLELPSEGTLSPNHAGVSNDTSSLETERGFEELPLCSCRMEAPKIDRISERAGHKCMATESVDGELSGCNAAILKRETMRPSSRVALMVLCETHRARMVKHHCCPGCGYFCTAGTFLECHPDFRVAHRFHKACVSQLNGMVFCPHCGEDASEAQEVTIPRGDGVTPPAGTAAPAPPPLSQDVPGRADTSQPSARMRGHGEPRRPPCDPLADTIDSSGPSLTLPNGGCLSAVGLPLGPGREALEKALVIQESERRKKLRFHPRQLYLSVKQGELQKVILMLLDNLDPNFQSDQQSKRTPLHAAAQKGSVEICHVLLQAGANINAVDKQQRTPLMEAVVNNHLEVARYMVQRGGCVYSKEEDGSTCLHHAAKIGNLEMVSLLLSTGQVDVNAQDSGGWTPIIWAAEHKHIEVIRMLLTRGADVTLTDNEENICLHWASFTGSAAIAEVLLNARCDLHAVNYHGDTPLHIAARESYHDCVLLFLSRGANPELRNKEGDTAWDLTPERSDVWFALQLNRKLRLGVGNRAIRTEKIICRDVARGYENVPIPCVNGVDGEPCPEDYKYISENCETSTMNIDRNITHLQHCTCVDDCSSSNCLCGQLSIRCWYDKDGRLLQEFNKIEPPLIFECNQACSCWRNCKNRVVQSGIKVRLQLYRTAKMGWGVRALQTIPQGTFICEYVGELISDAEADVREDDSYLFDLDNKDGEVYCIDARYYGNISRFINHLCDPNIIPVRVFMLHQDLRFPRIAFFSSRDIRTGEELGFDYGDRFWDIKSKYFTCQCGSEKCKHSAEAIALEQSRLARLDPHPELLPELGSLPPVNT

MOLM-13 = experiment: Antiproliferative activity against mixed-lineage leukemia rearranged (MLL-r) human MOLM-13 cells assessed as inhibition of cell growth incubated for 7 days by CCK-8 assay; format: functional, cell-based; details: time 7.0 day

DNA (cytosine-5)-methyltransferase 3A (Homo sapiens), sequence (Q9Y6K1 whole entry, looked up): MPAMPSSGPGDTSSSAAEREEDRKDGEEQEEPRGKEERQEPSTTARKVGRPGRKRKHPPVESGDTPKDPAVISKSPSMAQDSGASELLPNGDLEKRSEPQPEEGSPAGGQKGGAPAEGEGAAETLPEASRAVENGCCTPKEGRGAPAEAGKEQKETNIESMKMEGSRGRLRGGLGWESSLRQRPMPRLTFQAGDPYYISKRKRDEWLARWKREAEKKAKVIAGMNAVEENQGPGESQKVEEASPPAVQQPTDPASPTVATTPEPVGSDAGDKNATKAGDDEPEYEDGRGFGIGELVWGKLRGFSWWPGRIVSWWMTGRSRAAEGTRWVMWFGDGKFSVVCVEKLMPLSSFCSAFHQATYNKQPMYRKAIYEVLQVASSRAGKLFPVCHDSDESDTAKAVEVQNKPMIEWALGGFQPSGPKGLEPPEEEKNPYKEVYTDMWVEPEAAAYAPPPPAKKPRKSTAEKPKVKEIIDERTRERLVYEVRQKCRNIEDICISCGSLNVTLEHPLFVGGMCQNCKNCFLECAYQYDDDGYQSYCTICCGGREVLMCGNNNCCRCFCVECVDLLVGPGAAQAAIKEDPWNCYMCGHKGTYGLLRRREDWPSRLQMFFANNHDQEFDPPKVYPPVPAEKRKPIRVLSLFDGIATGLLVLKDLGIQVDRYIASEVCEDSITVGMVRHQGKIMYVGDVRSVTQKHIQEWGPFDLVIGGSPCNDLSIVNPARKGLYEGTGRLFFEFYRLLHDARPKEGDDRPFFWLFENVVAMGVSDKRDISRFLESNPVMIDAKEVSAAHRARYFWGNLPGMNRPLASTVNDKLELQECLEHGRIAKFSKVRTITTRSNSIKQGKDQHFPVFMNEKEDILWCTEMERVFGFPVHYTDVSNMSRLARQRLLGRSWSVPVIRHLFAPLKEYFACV

fold change (FC) [1]: 0.08
Activity [2]: 70%
Activity [3]: 77%
Activity [4]: 69%
Activity [5]: Dose-dependent-effect
DC50 [5]: 25 nM
Activity [6]: 93%
fold change (FC) [7]: 0.33
fold change (FC) [8]: 0.36
fold change (FC) [9]: 0.86
fold change (FC) [10]: 0.15
fold change (FC) [11]: 0.42
fold change (FC) [12]: 0.12
inhibition [13]: inactive
inhibition [14]: inactive
SMILES: Cc1ncsc1-c1ccc([C@H](CC(=O)NCCCCCCNC(=O)COc2nc(N)nc(Nc3cc(S(N)(=O)=O)ccc3N[C@@H](c3cccc4c3OC(F)(F)O4)c3ncccc3Cl)n2)NC(=O)[C@@H]2C[C@@H](O)CN2C(=O)[C@@H](NC(=O)C2(F)CC2)C(C)(C)C)cc1
Activity (MV4-11): inactive
Activity (MOLM-13): Active; Reduced Potency In Molm-13 Cells Relative To Mv4-11 Cells Observed
